Experimental data from patent publication US7648966B2, “Mannose-6-phosphonate compounds for the treatment of inflammatory diseases” (Pharmaxis Pty Limited, priority 2003, dated 2010).

What was measured:
[1] = system: 51Cr-labeled T lymphocyte migration into the spleen; experiment: Inhibition of lymphocyte migration into lymphoid tissue (spleen) in vivo; set-up: species or system Balb/c mice; conditions: 5 mg per mouse iv with labeled cells; spleens removed 1.5 hours after injection; vs negative controls
Method: Lymphocytes were obtained from spleens of 6-8 week old female specific pathogen-free Balb/c mice (19-21 g). Single cell suspensions prepared by conventional means (pushing through a stainless steel screen). Red blood cells were lysed by treating with a solution of bicarbonate buffered ammonium chloride-EDTA (pH 7.3) and the preparation strained through a Falcon 2350 cell strainer. All cell preparative steps were performed on ice. Cell were suspended in a conventional lymphocyte culture medium (DMEM plus glucose, folic acid, L-asparagine, sodium bicarbonate, L-glutamine, sodium pyruvate, HEPES, 2-mercaptoethanol, penicillin, streptomycin, neomycin, and 2% FCS).
B lymphocytes were depleted by suspending the cells in purified rat anti-mouse CD45/B220 antibody (RA3-6B2 clone; PharMingen, USA) at a concentration of 4×10^7 cells/ml and incubated on ice for 20 minutes. An equal volume of culture medium (as above) was added and the cells centrifuged (200×g) and resuspended at a concentration of 10^7 cells/ml in BioMag goat ant-rat IgG (H&L) (“GARIG”) conjugated to magnetic beads (Bio Mag; Perseptive Diagnostics, Polysciences, Inc., USA). Following a 20 minute incubation on ice, with agitation every 5 minutes, cells binding to the GARIG/anti-CD45/B220 antibody complex were removed using magnetic separation (Dynal MPC-6, Dynal, USA). This procedure was repeated 4 times, resulting in a cell population containing approximately 80-90% T lymphocytes (determined by FACS analysis).
The cells were then washed in Hanks balanced salt solution (HBSS), resuspended in 5 ml of HBSS, and radiolabeled with ^51Cr for 30 minutes at 37° C. (as described above). The labeled cells were washed in PBS, centrifuged (200×g), and a portion were resuspended at a concentration of 3×10^7 cells/ml in either PBS (negative control) or PBS containing phenyl mannoside 6-phosphate (25 mg/ml in PBS; positive control) or PBS containing the test compound (25 mg/ml), and stored on ice. Cell viability was confirmed throughout the procedures by trypan blue exclusion. Balb/c mice were injected intravenously (iv) into the lateral tail vein with 0.2 ml containing 6×10^6 labeled lymphocytes and 0.2 ml of either PBS (negative control), 5 mg positive control or 5 mg test compound. All groups of mice were weight matched (±0.5 g).
Spleens from recipient mice were removed 1.5 hours after injection, and the cell-associated radioactivity was determined using a gamma counter (as above). Results of inhibition of lymphocyte migration into the spleen were expressed as a percentage reduction in the CPM of the spleens from treated animals compared with negative controls.
The phosphono-mannoside compounds of the present invention and their relative inhibition of lymphocyte migration in vivo (compared to negative controls) are presented in Table 2.

[2] = system: picryl chloride-sensitized T lymphocyte migration into the right ear pinna; experiment: Inhibition of T lymphocyte migration into extralymphatic tissue (picryl chloride-painted ear pinna) in vivo; set-up: species or system Balb/c mice; conditions: 5 mg/mouse IV; 9-10 hours after cell infusion
Description: The foregoing methods are recognized and well understood by those skilled in the art and the underlying principles can be found in any immunology textbook such as those cited above. Here donor animals are sensitized to a self protein (in practice, skin is the easiest tissue to use) by chemically modifying the protein(s) in this tissue thereby allowing the chemical moiety to be ‘seen’ as ‘foreign’ tissue by the immune system. This is done by reacting the skin (“painting”) with a ‘hapten’ which is usually an alkylating or arylating agent that reacts covalently with and thereby modifies protein(s) in the skin. Seven to ten days following sensitization, spleens or draining LNs are taken from the donor animals. […] Within a short time of cell transfer sensitized T cells begin to accumulate in the hapten-modified tissue, 8-24 hours later the tissue can be removed and the cell accumulation assessed. In the case of fluorescently-labeled cells, their accumulation is assessed histologically or histochemically, and in the case of radiolabeled cells, accumulation is assessed by counting radioactive decay in a suitable device. […]
B lymphocytes were depleted as described in Example 3. The enriched lymphocyte population contained approximately 85-90% T lymphocytes and <1% B cells (determined by FACS analysis). […]

Structure (SMILES): Cc1ccc(O[C@H]2O[C@H](CCP(=O)(O)O)[C@@H](O)[C@H](O)[C@@H]2O)c(C)c1
- % Inhibition of lymphocyte migration into spleens [1]: 82.4%
- Percent inhibition of T cell migration (right ear pinna) [2]: 56.1%
